Data taken from publication PMC12292835, “Amylin Receptor 1 Mutagenesis Revealed a Potential Role of Calcitonin Serine 29 in Receptor Interaction” (Biomedicines, 2025).
Where a SMILES comes first, the peptide text is derived from it. The star is where a group is joined. FITC = O=C1OC2(c3ccc(O)cc3Oc3cc(O)ccc32)c2ccc(NC(=S)*)cc21

Tests used:
[1] = biological target: T1, amylin receptor 1 ECD wild-type (WT) (Homo sapiens, UniProt O60894+P30988); experiment: FP saturation binding, FITC peptide probes, wild-type amylin receptor 1 ECD; settings: for Average fluorescence intensity change upon receptor ECD binding: % of a free probe intensity, Mean ± S.D., WT, max receptor 3 μM (sCT), 1 μM (AC413)
T1 construct: pHLsec/hRAMP1.24–111-(GSA)3-hCTR.34–141-H6 (H-pSL005); H6 (hexahistidine) (C); made in house; host or cells: HEK293 (transient transfection, secreted, N-glycosylated)
T1 sequence (O60894 24-111): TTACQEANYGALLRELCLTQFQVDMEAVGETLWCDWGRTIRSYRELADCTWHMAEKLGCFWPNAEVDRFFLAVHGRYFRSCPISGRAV
T1 sequence (P30988 34-141): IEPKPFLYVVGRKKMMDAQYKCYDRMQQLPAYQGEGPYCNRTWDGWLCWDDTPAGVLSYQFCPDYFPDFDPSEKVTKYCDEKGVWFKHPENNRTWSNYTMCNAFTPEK
Source text: (§1) pHLsec-based vectors were used to express wild-type and mutated amylin receptor 1 extracellular domains as secreted proteins to cell culture media. The plasmid DNA construct of the wild-type amylin receptor 1 extracellular domain, pHLsec/hRAMP1.24–111-(GSA)3-hCTR.34–141-H6 (H-pSL005) was previously described. The following DNA vector plasmids were made for this study: pHLsec/hRAMP1.24–111-(GSA)3-hCTR.34–141.D97A-H6 (D-pSL009), pHLsec/hRAMP1.24–111-(GSA)3-hCTR.34–141.D97E-H6 (D-pJS001), pHLsec/hRAMP1.24–111-(GSA)3-hCTR.34–141.D101A-H6 (D-pJJ003), pHLsec/hRAMP1.24–111-(GSA)3-hCTR.34–141.D101E-H6 (D-pJJ002), pHLsec/hRAMP1.24–111-(GSA)3-hCTR.34–141.E123A-H6 (D-pJJ004), pHLsec/hRAMP1.24–111-(GSA)3-hCTR.34–141.E123D-H6 (D-pJJ001), pHLsec/hRAMP1.24–111-(GSA)3-hCTR.34–141.N124A-H6 (D-pJS005), pHLsec/hRAMP1.24–111-(GSA)3-hCTR.34–141.N124D-H6 (D-pJS006), pHLsec/hRAMP1.24–111-(GSA)3-hCTR.34–141.N135A-H6 (D-pJW001), and pHLsec/hRAMP1.24–111-(GSA)3-hCTR.34–141.N135D-H6 (D-pJS002). The mutations were introduced to the calcitonin receptor extracellular domain by using DNA Assembly reaction. Coding sequences of the receptor expression vectors were confirmed with Sanger sequencing by Bionics (Seoul, Republic of Korea). DNA plasmid vectors were extracted and were purified from bacterial cells with NucleoBond® Extra Midi Plus kit (Macherey-Nagel, Germany). The purified DNA vectors were stored at −20 °C until their use for mammalian cell transfection.
The overall experimental procedure of reconstituting the functional amylin receptor 1 extracellular domain (ECD) as the fusion protein of RAMP1 ECD and the calcitonin receptor ECD was previously described. The wild-type and mutated amylin receptor 1 ECDs were expressed from HEK293 cells with transient transfection with polyethylenimine. […]
(§2) The overall procedure of the FP binding assay with a saturation binding format was previously described. […] FITC-labeled peptide probes were incubated for 1 h at room temperature with the purified receptor protein prior to fluorescence signal measurement. […]

[2] = biological target: T2, amylin receptor 1 ECD with calcitonin receptor N135D mutation (Homo sapiens, UniProt O60894+P30988, N135D); experiment: FP saturation binding, N135D; settings: for Average fluorescence intensity change upon receptor ECD binding: % of a free probe intensity, Mean ± S.D., max receptor 3 μM (sCT), 1 μM (AC413); for effect of mutation on binding affinity: in words
T2 construct: pHLsec/hRAMP1.24–111-(GSA)3-hCTR.34–141.N135D-H6 (D-pJS002); H6 (hexahistidine) (C); made in house; host or cells: HEK293 (transient transfection, secreted, N-glycosylated)
T2 sequence (O60894 24-111): as the sequence (O60894 24-111) above
T2 sequence (P30988 34-141 N135D): as the sequence (P30988 34-141) above, with N102D counted along it
Source text: as §1
(§3) The overall experimental procedure of reconstituting the functional amylin receptor 1 extracellular domain (ECD) as the fusion protein of RAMP1 ECD and the calcitonin receptor ECD was previously described. The wild-type and mutated amylin receptor 1 ECDs were expressed from HEK293 cells with transient transfection with polyethylenimine. The expressed receptor proteins were secreted to cell culture media for 4 days at 37 °C. The media were collected for the receptor protein purification. Initial dialysis was performed with the dialysis buffer (Tris 25 mM (pH 7.4), NaCl 150 mM, and imidazole 10 mM) overnight. […] Then, a size exclusion column chromatography (SEC) was performed with SEC column (Cytiva, HiLoad® 16/600 Superdex® 200 pg) and SEC buffer (Tris 50 mM (pH 7.4), NaCl 150 mM, and glycerol (v/v) 10%) as previously described. As the final step, the purified receptor proteins were dialyzed to storage buffer (HEPES 25 mM (pH 7.4), NaCl 150 mM, and glycerol (v/v) 50 %) and were stored at −60 °C until their use for the receptor–ligand binding assay. […]
as §2

[3] = biological target: T3, amylin receptor 1 ECD with calcitonin receptor N124D mutation (Homo sapiens, UniProt O60894+P30988, N124D); experiment: FP saturation binding, N124D; settings: for Average fluorescence intensity change upon receptor ECD binding: % of a free probe intensity, Mean ± S.D., max receptor 3 μM (sCT), 1 μM (AC413); for effect of mutation on binding affinity: compared with N124A, in words
T3 construct: pHLsec/hRAMP1.24–111-(GSA)3-hCTR.34–141.N124D-H6 (D-pJS006); H6 (hexahistidine) (C); made in house; host or cells: HEK293 (transient transfection, secreted, N-glycosylated)
T3 sequence (O60894 24-111): as the sequence (O60894 24-111) above
T3 sequence (P30988 34-141 N124D): as the sequence (P30988 34-141) above, with N91D counted along it
Source text: as §1
The overall experimental procedure of reconstituting the functional amylin receptor 1 extracellular domain (ECD) as the fusion protein of RAMP1 ECD and the calcitonin receptor ECD was previously described. The wild-type and mutated amylin receptor 1 ECDs were expressed from HEK293 cells with transient transfection with polyethylenimine. The expressed receptor proteins were secreted to cell culture media for 4 days at 37 °C. The media were collected for the receptor protein purification. Initial dialysis was performed with the dialysis buffer (Tris 25 mM (pH 7.4), NaCl 150 mM, and imidazole 10 mM) overnight. […] Then, a size exclusion column chromatography (SEC) was performed with SEC column (Cytiva, HiLoad® 16/600 Superdex® 200 pg) and SEC buffer (Tris 50 mM (pH 7.4), NaCl 150 mM, and glycerol (v/v) 10%) as previously described. As the final step, the purified receptor proteins were dialyzed to storage buffer (HEPES 25 mM (pH 7.4), NaCl 150 mM, and glycerol (v/v) 50 %) and were stored at −60 °C until their use for the receptor–ligand binding assay. All purification procedures were performed at 4 °C.
Two peptide probes labeled with fluorescein isothiocyanate (FITC) were used for this study: FITC-labeled salmon calcitonin (sCT) fragment(22–32) and FITC-labeled AC413(6–25) with Y25P mutation. These peptide probes were custom-synthesized from Genscript (Piscataway, NJ, USA). These peptides were used as the probes for the receptor–ligand binding assay. These peptides were HPLC-purified with at least 85% purity by Genscript (Piscataway, NJ, USA). Mass spectrometry performed at Genscript confirmed the correct molecular mass of the synthesized peptides. The extinction coefficient of FITC (63,000 M^−1·cm^−1 at 495 nm, pH 7.0) was used to calculate the concentration of the peptides.
The overall procedure of the FP binding assay with a saturation binding format was previously described. A total of 10 nM FITC-labeled sCT(22–32) and 10 nM FITC-labeled AC413(6–25) with Y25P mutation were used for the receptor–ligand binding assay. For the saturation binding format, the non-linear regression curves were generated by using user-defined equations that were previously described for affinity calculation. FITC-labeled peptide probes were incubated for 1 h at room temperature with the purified receptor protein prior to fluorescence signal measurement. […]

[4] = biological target: T4, amylin receptor 1 ECD with calcitonin receptor D97A mutation (Homo sapiens, UniProt O60894+P30988, D97A); experiment: FP saturation binding, D97A; settings: for Average fluorescence intensity change upon receptor ECD binding: % of a free probe intensity, Mean ± S.D., max receptor 3 μM (sCT), 1 μM (AC413)
T4 construct: pHLsec/hRAMP1.24–111-(GSA)3-hCTR.34–141.D97A-H6 (D-pSL009); H6 (hexahistidine) (C); made in house; host or cells: HEK293 (transient transfection, secreted, N-glycosylated)
T4 sequence (O60894 24-111): as the sequence (O60894 24-111) above
T4 sequence (P30988 34-141 D97A): as the sequence (P30988 34-141) above, with D64A counted along it
Source text: as §1, §3, §2

[5] = biological target: T5, amylin receptor 1 ECD with calcitonin receptor D97E mutation (Homo sapiens, UniProt O60894+P30988, D97E); experiment: FP saturation binding, D97E; settings: for Average fluorescence intensity change upon receptor ECD binding: % of a free probe intensity, Mean ± S.D., max receptor 3 μM (sCT), 1 μM (AC413); for effect of mutation on binding affinity: in words
T5 construct: pHLsec/hRAMP1.24–111-(GSA)3-hCTR.34–141.D97E-H6 (D-pJS001); H6 (hexahistidine) (C); made in house; host or cells: HEK293 (transient transfection, secreted, N-glycosylated)
T5 sequence (O60894 24-111): as the sequence (O60894 24-111) above
T5 sequence (P30988 34-141 D97E): as the sequence (P30988 34-141) above, with D64E counted along it
Source text: as §1, §3, §2

Row | Compound | Average fluorescence intensity change upon receptor ECD binding [1] [%] | Average fluorescence intensity change upon receptor ECD binding [2] [%] | effect of mutation on binding affinity [2] | Average fluorescence intensity change upon receptor ECD binding [3] [%] | effect of mutation on binding affinity [3] | effect of mutation on binding affinity ([3]; listed as AC413 fragment) | Average fluorescence intensity change upon receptor ECD binding ([4]; D97A) [%] | effect of mutation on binding affinity ([4]; D97A, in words) | Average fluorescence intensity change upon receptor ECD binding [5] [%] | effect of mutation on binding affinity [5] | stronger affinity of FITC-labeled over non-labeled peptide ([1]; KD 81 nM versus previously reported KI 2.5 μM of non-labeled sCT(22–32)) | effect of mutation on binding affinity ([3]; listed as salmon calcitonin fragment) | decrease of binding affinity ([4]; D97A versus wild-type receptor ECD) [fold]
1 | CC(C)C[C@H](NC(=O)[C@H](CCCNC(=N)N)NC(=O)[C@@H](NC(=O)[C@H](CC(C)C)NC(=O)[C@H](Cc1ccccc1)NC(=O)[C@H](CC(N)=O)NC(=O)[C@H](C)NC(=S)Nc1ccc2c(c1)C(=O)OC21c2ccc(O)cc2Oc2cc(O)ccc21)C(C)C)C(=O)N[C@@H](CCC(N)=O)C(=O)N[C@H](C(=O)N[C@@H](Cc1ccc(O)cc1)C(=O)N1CCC[C@H]1C(=O)N[C@@H](CCCNC(=N)N)C(=O)N[C@H](C(=O)N[C@@H](CC(N)=O)C(=O)N[C@H](C(=O)NCC(=O)N[C@@H](C)C(=O)N[C@@H](CC(N)=O)C(=O)N[C@H](C(=O)N1CCC[C@H]1C(N)=O)[C@@H](C)O)C(C)C)[C@@H](C)O)[C@@H](C)O [FITC-AC413(6–25) Y25P] ({FITC}-ANFLVRLQTYPRTNVGANTP-NH2; C-terminus assumed) | 67 ± 8 | 85 ± 15 | failed to recover the binding affinity | 88 ± 8 | failed to restore the decreased binding affinity | failed to restore the decreased affinity | 71 ± 4 | not significantly changed | 68 ± 3 | not significantly changed |  |  | 
2 | C[C@@H](O)[C@H](NC(=O)[C@H](CC(N)=O)NC(=O)[C@@H](NC(=O)[C@H](CCCNC(=N)N)NC(=O)[C@@H]1CCCN1C(=O)[C@H](Cc1ccc(O)cc1)NC(=S)Nc1ccc2c(c1)C(=O)OC21c2ccc(O)cc2Oc2cc(O)ccc21)[C@@H](C)O)C(=O)NCC(=O)N[C@@H](CO)C(=O)NCC(=O)N[C@H](C(=O)N1CCC[C@H]1C(N)=O)[C@@H](C)O [FITC-sCT(22–32)] ({FITC}-YPRTNTGSGTP-NH2; C-terminus assumed) | 71 ± 4 | 99 ± 0.1 | failed to recover the binding affinity | 77 ± 5 | fully restored the decreased binding affinity |  | 75 ± 12 |  | 78 ± 4 | partially restored the decreased affinity | more than 30 fold | restored the decreased affinity | 6.8
